The target in experiment [1] is T1, Muscarinic acetylcholine receptor M2 (Homo sapiens) (UniProt P08172).
T1 sequence (whole entry): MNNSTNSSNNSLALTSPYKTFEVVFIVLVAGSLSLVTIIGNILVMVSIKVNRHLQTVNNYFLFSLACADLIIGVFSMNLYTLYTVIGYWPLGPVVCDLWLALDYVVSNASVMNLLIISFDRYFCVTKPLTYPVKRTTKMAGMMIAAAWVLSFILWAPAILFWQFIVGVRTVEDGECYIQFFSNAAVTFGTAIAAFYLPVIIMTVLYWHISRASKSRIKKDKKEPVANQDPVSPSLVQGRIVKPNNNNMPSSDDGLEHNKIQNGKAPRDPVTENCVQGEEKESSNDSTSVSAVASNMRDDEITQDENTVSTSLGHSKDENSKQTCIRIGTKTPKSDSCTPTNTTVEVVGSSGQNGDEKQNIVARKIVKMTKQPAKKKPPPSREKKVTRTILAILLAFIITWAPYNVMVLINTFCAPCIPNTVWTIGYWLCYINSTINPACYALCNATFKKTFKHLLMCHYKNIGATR
Kind of experiment: Selectivity interaction (Panel of kinases, GPCRs, ion channels and transporters (enzymatic assay)) EUB0000266bCl CHRM2.

The target of experiment [2] is T2, Serine/threonine-protein kinase BRSK2 (Homo sapiens) (UniProt Q8IWQ3).
T2 sequence (whole entry): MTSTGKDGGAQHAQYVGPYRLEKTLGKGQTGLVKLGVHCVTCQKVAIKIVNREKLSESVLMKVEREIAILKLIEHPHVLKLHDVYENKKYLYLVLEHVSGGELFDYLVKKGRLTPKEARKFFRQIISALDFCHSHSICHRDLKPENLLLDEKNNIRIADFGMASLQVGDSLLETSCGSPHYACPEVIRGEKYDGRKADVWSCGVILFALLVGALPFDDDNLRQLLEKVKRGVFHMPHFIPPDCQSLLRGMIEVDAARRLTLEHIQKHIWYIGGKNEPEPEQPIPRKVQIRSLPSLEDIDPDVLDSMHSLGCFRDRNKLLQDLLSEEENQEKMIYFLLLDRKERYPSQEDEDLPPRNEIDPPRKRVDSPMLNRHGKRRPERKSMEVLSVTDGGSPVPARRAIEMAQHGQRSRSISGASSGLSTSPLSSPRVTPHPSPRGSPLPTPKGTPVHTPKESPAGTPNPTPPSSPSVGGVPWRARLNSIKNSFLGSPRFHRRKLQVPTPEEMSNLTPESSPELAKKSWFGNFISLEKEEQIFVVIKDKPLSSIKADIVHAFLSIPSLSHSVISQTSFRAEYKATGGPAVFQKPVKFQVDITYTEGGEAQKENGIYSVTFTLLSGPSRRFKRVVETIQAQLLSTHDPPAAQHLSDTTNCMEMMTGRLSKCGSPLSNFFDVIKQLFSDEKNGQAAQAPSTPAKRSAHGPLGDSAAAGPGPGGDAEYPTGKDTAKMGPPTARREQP
The conditions noted are these: at 10 µM.

Experiment [3] has as its target Tyrosine-protein kinase Yes (Homo sapiens) (UniProt P07947). Kind of experiment: Selectivity interaction (KinomeScan (DiscoverX)) EUB0000655a YES1. The conditions noted are these: at 10 µM.
Experiment [4] has as its target T3, Mitogen-activated protein kinase kinase kinase kinase 2 (Homo sapiens) (UniProt Q12851).
T3 sequence (whole entry): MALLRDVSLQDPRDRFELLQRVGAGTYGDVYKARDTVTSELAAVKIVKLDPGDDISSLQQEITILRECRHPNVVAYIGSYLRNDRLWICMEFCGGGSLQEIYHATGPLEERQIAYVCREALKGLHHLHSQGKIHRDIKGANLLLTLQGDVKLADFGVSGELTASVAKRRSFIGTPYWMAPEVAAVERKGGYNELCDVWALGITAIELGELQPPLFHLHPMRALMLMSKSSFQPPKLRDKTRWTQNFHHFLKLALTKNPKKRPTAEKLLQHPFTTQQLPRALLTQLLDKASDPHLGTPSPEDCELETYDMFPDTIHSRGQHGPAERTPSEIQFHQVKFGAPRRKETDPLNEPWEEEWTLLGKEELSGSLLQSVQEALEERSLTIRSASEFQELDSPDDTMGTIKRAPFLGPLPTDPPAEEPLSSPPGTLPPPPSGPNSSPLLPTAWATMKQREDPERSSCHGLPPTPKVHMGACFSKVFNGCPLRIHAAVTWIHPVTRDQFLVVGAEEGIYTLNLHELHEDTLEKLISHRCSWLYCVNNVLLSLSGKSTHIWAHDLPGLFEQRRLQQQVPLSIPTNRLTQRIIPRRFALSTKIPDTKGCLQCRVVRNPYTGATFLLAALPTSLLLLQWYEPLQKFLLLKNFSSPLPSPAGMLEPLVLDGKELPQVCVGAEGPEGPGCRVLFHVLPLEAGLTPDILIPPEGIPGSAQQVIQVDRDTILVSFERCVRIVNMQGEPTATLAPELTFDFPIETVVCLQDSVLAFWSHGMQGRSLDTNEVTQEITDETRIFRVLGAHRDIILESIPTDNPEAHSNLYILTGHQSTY
Kind of experiment: Selectivity interaction (KinomeScan (DiscoverX)) EUB0000695a MAP4K2. The conditions noted are these: at 100 nM.

Experiment [5] concerns the target Serine/threonine-protein kinase 10 (Homo sapiens) (UniProt O94804). In words: Selectivity interaction (KinomeScan (DiscoverX)) EUB0000695a STK10. The conditions noted are these: at 100 nM.
Experiment [6] deals with Mitogen-activated protein kinase kinase kinase 20 (Homo sapiens) (UniProt Q9NYL2). Kind of experiment: Selectivity interaction (KinomeScan (DiscoverX)) EUB0000666a MAP3K20. As to conditions: at 10 µM.
Chain of Mitogen-activated protein kinase kinase kinase 20 (Homo sapiens) (Q9NYL2 2-800 limits assumed): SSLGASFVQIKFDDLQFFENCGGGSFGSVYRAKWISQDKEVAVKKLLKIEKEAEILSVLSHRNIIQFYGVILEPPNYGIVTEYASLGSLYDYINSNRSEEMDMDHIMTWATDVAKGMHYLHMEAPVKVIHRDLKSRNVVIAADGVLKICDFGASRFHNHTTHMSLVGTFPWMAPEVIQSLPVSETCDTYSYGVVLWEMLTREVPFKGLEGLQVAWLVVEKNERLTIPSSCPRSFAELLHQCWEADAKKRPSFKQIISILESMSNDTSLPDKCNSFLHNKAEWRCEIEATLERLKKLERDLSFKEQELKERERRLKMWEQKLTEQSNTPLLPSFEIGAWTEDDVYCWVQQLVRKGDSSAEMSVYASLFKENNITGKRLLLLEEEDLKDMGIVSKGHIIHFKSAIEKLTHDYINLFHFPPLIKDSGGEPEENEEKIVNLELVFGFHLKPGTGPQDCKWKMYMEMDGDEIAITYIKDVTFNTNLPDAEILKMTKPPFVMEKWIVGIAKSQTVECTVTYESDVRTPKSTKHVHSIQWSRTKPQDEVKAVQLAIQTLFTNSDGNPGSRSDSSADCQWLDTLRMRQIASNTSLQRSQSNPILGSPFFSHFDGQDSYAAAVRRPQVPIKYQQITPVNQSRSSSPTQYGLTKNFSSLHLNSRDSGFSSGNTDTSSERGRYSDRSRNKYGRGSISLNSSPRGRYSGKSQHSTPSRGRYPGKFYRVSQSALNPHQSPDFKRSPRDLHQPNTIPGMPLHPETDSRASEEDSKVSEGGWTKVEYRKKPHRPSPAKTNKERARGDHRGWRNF
Experiment [7] deals with Phosphorylase b kinase gamma catalytic chain, skeletal muscle/heart isoform (Homo sapiens) (UniProt Q16816). In words: Selectivity interaction (SelectScreen profiling (Invitrogen)) EUB0000607a PHKG1. As to conditions: at 2 µM.
Chain of Phosphorylase b kinase gamma catalytic chain, skeletal muscle/heart isoform (Homo sapiens) (Q16816 whole entry, looked up, canonical isoform): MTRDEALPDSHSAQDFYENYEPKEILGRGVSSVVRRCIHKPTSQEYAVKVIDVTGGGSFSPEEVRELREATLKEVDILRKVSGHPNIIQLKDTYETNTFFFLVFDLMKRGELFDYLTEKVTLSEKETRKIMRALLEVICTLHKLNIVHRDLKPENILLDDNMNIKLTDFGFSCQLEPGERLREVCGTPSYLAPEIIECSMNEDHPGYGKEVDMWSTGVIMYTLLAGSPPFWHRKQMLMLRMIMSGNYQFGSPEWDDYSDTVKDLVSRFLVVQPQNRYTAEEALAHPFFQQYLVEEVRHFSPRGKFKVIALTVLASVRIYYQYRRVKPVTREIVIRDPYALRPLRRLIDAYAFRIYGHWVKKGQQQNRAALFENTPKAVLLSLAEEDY
Experiment [8] addresses Tyrosine-protein kinase Fyn (Homo sapiens) (UniProt P06241). Kind of experiment: Selectivity interaction (ActivX KiNativ screen (kinase selectivity in THP-1 cell lysates)) EUB0000639a FYN. As to conditions: lysate, at 1 µM. Type of experiment: subcellular.
The test system of experiment [9] is Phosphatidylinositol 4,5-bisphosphate 3-kinase catalytic subunit alpha isoform (Homo sapiens), P42336 [E545A]. The conditions noted are these: at 10 µM.
Chain of Phosphatidylinositol 4,5-bisphosphate 3-kinase catalytic subunit alpha isoform (Homo sapiens), P42336 [E545A] (P42336 whole entry E545A, canonical isoform): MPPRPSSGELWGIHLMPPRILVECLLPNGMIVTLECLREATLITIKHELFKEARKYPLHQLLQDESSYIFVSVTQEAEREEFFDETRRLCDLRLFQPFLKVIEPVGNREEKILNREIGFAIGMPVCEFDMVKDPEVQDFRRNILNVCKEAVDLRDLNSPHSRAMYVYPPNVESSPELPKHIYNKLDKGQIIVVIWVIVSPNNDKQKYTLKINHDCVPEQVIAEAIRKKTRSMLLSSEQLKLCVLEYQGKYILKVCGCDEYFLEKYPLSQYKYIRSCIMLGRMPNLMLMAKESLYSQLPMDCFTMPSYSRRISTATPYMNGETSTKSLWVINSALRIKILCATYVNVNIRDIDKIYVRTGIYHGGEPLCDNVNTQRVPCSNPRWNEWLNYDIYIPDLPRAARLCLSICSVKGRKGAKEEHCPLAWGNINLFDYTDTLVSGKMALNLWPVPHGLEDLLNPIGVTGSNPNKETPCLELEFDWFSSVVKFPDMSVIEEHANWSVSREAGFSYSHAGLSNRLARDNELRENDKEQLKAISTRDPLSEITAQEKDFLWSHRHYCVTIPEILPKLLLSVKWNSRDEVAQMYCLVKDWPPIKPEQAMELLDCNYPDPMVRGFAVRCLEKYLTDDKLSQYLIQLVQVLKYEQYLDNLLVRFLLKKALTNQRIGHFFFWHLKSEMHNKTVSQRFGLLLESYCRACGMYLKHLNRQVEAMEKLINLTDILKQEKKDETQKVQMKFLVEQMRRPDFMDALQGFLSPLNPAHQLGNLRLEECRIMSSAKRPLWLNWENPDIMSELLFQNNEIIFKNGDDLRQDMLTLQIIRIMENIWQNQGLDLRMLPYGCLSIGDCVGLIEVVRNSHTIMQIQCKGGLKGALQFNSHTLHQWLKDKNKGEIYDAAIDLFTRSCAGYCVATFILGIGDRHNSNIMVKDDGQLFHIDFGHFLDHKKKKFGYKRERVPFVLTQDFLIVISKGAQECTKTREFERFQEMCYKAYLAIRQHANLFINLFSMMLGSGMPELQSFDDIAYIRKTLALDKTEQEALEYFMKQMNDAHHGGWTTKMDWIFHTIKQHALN
Experiment [10] addresses Tyrosine-protein kinase SYK (Homo sapiens, UniProt P43405). In words: Selectivity interaction (ActivX KiNativ screen (ex vivo kinase selectivity in human PBMCs)) EUB0001619a SYK. Type of experiment: cell-based. As to conditions: PBMC, at 1 µM.

Chain of Tyrosine-protein kinase Fyn (Homo sapiens) (P06241 2-537 limits assumed): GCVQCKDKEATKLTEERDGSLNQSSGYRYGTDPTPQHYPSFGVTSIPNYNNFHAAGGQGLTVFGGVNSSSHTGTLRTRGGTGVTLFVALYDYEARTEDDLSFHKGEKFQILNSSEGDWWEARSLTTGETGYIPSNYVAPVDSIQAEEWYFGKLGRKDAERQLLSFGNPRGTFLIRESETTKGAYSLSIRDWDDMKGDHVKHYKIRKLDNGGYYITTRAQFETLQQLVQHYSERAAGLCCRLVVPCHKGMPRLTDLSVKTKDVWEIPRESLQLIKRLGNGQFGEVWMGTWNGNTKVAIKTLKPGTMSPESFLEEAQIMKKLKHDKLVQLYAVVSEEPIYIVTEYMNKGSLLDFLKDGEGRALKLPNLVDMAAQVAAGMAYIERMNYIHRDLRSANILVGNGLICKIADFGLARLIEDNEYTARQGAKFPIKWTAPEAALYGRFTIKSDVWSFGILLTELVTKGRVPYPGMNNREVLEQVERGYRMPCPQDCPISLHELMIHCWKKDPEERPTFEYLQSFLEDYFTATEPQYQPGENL
Chain of Serine/threonine-protein kinase 10 (Homo sapiens) (O94804 whole entry, looked up): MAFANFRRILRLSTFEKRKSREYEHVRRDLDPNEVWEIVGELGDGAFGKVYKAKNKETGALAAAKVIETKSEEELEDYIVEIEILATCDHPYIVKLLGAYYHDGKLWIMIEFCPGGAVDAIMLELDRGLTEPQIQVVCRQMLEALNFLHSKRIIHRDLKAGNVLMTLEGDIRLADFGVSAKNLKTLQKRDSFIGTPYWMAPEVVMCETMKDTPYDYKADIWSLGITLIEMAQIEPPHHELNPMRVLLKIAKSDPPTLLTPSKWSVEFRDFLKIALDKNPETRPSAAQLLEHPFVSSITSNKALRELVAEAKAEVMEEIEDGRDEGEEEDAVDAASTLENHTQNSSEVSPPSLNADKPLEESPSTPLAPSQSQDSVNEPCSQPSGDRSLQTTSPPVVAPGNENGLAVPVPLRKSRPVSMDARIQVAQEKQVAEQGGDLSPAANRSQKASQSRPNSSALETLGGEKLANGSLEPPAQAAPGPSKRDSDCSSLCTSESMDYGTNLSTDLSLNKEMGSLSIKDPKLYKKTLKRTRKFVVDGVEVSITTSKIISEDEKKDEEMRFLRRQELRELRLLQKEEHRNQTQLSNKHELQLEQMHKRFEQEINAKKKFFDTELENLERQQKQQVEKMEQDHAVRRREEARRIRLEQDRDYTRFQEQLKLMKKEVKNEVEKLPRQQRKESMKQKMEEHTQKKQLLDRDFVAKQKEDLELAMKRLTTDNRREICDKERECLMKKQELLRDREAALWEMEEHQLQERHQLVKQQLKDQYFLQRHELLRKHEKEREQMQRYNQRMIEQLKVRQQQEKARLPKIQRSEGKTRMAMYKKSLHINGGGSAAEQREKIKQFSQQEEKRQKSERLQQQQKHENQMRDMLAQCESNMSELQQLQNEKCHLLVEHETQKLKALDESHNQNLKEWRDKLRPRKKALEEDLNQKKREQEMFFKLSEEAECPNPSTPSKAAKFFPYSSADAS
Chain of Tyrosine-protein kinase Yes (Homo sapiens) (P07947 2-543 limits assumed): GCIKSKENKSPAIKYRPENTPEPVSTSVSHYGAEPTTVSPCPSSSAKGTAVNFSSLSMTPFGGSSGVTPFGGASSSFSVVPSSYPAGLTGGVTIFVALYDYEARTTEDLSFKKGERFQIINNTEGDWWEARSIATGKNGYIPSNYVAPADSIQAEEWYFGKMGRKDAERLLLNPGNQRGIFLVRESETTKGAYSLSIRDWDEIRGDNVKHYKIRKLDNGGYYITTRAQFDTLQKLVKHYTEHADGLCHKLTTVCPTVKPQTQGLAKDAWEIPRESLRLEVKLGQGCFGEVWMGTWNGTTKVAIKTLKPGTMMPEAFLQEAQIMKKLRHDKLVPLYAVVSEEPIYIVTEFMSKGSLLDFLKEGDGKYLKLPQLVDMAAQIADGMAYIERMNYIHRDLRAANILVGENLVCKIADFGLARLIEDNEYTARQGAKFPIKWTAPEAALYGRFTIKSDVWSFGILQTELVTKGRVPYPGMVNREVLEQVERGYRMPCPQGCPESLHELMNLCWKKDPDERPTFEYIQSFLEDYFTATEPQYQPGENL

In the case of `CCn1c(-c2nc3cc(C(=O)N4CCCC(N)C4)ccc3n2C)cc2ccccc21` (stereo not given), in [1], the pXC50 was less than 4.8 M.
Take `CCN(CC)CCCCNc1ncc2cc(-c3cc(OC)cc(OC)c3)c(NC(=O)NC(C)(C)C)nc2n1`: in experiment [2], the % of control was 100%.
For the compound `CN(C)CCOc1ccc(-c2nc(-c3ccncc3)c(-c3ccc4c(c3)CC/C4=N\O)[nH]2)cc1`, the % of control in [3] was determined as 100%.
For `Cc1cc(F)c(C(=O)Nc2cccc(-c3nncn3C(C)C)n2)cc1-n1cnc(C2CC2)c1`, the % of control in experiment [4] and in experiment [5] was 100% throughout.
In [6], `O=C(NOC[C@H](O)CO)c1ccc(F)c(F)c1Nc1ccc(I)cc1F` came in with a % of control of 88%.
Regarding `CNC(=O)Nc1ccc(-c2nc(N3CC4CCC(C3)O4)c3cnn(C4CCC5(CC4)OCCO5)c3n2)cc1`, in experiment [7], the % of inhibition came to 7%.
In the case of `CC[C@@H]1[C@H](F)C(=O)N[C@@H]1COc1nccc2cc(C(N)=O)c(OC)cc12` [ZIMLOVISERTIB], in experiment [8], the % of inhibition is -11%.
`COCC(=O)NC/C=C/c1ccc2ncnc(Nc3ccc(Oc4ccc(C)nc4)c(C)c3)c2c1` [CP-724714]: the % of control in experiment [9] was 33%.
As for `N#Cc1cccc(-c2c[nH]c3ncnc(N4CCOCC4)c23)c1`, the % of inhibition in [10] stood at 7%.
